In ChEMBL document CHEMBL5725286, “Polyfluorinated compounds acting as bruton tyrosine kinase inhibitors” (2017):

Target: Tyrosine-protein kinase BTK (Homo sapiens, UniProt Q06187)
Experiment: HTRF Assay: The enzyme reaction mixture of BTK wild type standard HTRF assay contained 1 nM BTK wild type, 1 μM biotin-TK1 peptide, and 30 μM ATP in a buffer. The enzyme reaction were carried out at room temperature for 60 minutes. 5 μl of 0.2 M EDTA were added to quench the reaction and then […] were added at final concentrations of 2 nM antibody and 62.5 nM XL665. The plates were incubated at room temperature for 60 minutes and then read in the Envision plate reader.

Chain of Tyrosine-protein kinase BTK (Q06187 whole entry): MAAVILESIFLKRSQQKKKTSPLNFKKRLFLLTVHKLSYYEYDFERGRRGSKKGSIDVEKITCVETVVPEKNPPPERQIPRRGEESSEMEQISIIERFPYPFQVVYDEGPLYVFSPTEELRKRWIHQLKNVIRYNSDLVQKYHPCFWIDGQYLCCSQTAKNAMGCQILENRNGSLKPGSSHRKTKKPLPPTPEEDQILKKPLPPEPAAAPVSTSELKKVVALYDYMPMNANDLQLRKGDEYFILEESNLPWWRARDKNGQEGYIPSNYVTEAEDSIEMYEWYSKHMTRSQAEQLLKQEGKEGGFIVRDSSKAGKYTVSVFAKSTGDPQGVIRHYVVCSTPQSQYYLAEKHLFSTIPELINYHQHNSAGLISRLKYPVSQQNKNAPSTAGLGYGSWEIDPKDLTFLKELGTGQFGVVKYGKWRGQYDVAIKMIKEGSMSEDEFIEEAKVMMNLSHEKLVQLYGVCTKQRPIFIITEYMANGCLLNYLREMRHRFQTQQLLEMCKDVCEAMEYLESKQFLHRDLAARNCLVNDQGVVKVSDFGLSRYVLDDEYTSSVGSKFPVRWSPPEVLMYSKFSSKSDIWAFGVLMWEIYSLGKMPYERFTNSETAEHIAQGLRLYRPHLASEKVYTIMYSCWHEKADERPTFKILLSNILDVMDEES

Nc1ncnc2c1c(-c1ccc(Oc3c(F)c(F)cc(F)c3F)cc1F)nn2C1CCC(NC(=O)CSSCC(=O)NC2CCC(n3nc(-c4ccc(Oc5c(F)c(F)cc(F)c5F)cc4F)c4c(N)ncnc43)CC2)CC1 (stereo unspecified)
IC50: 22 nM
